From patent US6355799B1, “Substituted benzene compounds, process for their preparation, and herbicidal and defoliant compositions containing them” (ISK Americas Incorporated, priority 1997, dated 2002)

Assays:
Type in all cases: in vivo
[1] = system: ivyleaf morningglory (Ipomoea hederacea, IPOHE); test: Post-emerge test, greenhouse herbicide activity screening; conditions: post-emerge, 14 days after application, rating scale 0-100
Outline: (§1)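 Compounds in acetone were track-sprayed at 15–1000 g ai/ha: pre-emergence onto soil sown the previous day, then top-watered to incorporate and later bottom-watered; post-emergence onto 2–3 leaf plants with 0.25% v/v surfactant, bottom-watered only. Ratings on a 0–100 phytotoxicity scale were taken at day 14.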

[2] = system: johnsongrass (Sorghum halepense, SORHA); test: as above; conditions: post-emerge, 14 days after application, rating scale 0-100
Outline: as §1

[3] = system: lambsquarters (Chenopodium album, CHEAL); test: as above; conditions: post-emerge, 14 days after application, rating scale 0-100
Outline: as §1

[4] = system: redroot pigweed (Amaranthus retroflexus, AMARE); test: as above; conditions: post-emerge, 14 days after application
Outline: as §1

[5] = system: large crabgrass (Digitaria sanguinalis, DIGSA); test: as above; conditions: post-emerge, 14 days after application, rating scale 0-100
Outline: as §1

[6] = system: sicklepod (Cassia obtusifolia, CASOB); test: as above; conditions: post-emerge, 14 days after application, rating scale 0-100
Outline: as §1

[7] = system: barnyardgrass (Echinochloa crus-galli, ECHCG); test: as above; conditions: post-emerge, 14 days after application, rating scale 0-100
Outline: as §1

[8] = system: green foxtail (Setaria viridis, SETVI); test: as above; conditions: post-emerge, 14 days after application, rating scale 0-100
Outline: as §1

[9] = system: velvetleaf (Abutilon theophrasti, ABUTH); test: as above; conditions: post-emerge, 14 days after application, rating scale 0-100
Outline: as §1

[10] = system: redroot pigweed (Amaranthus retroflexus, AMARE); test: Pre-emerge test, greenhouse herbicide activity screening; conditions: pre-emerge, 14 days after application, rating scale 0-100
Outline: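 Rating: 0–100 visual injury, 14 DAA. Application: acetone, 187 l/ha, 15–1000 g ai/ha, flat-fan track sprayer with nozzle 40–45 cm above soil or canopy. Post-emerge runs used 0.25% v/v surfactant on 2–3 leaf plants.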

[11] = system: upland rice (Oryza sp., var. Tebonnet, RICE); test: Post-emerge test, crop safety; conditions: post-emerge, 14 days after application, rating scale 0-100
Outline: (§2)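 Sandy loam pots; pre-emerge: sown 1 d pre-spray, surface-watered after, then bottom-watered. Post-emerge: sown 8–21 d before, 2–3 leaf stage, + 0.25% v/v NIS, bottom-watered. Acetone, 187 l/ha track spray, 15–1000 g ai/ha. 0–100 injury score, day 14.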

[12] = system: field corn (Zea mays L., var. Dekalb 535, CORN); test: Post-emerge test, crop safety; conditions: post-emerge, 14 days after application, rating scale 0-100
Outline: as §2

[13] = system: ivyleaf morningglory (Ipomoea hederacea, IPOHE); test: Pre-emerge test, greenhouse herbicide activity screening; conditions: pre-emerge, 14 days after application, rating scale 0-100
Outline: as §2

[14] = system: johnsongrass (Sorghum halepense, SORHA); test: as above; conditions: pre-emerge, 14 days after application, rating scale 0-100
Outline: as §2

[15] = system: lambsquarters (Chenopodium album, CHEAL); test: as above; conditions: pre-emerge, 14 days after application, rating scale 0-100
Outline: as §2

[16] = system: large crabgrass (Digitaria sanguinalis, DIGSA); test: as above; conditions: pre-emerge, 14 days after application, rating scale 0-100
Outline: as §2

[17] = system: sicklepod (Cassia obtusifolia, CASOB); test: as above; conditions: pre-emerge, 14 days after application, rating scale 0-100
Outline: as §2

[18] = system: barnyardgrass (Echinochloa crus-galli, ECHCG); test: as above; conditions: pre-emerge, 14 days after application, rating scale 0-100
Outline: as §2

[19] = system: green foxtail (Setaria viridis, SETVI); test: as above; conditions: pre-emerge, 14 days after application, rating scale 0-100
Outline: as §2

[20] = system: velvetleaf (Abutilon theophrasti, ABUTH); test: as above; conditions: pre-emerge, 14 days after application, rating scale 0-100
Outline: as §2

[21] = system: upland rice (Oryza sp., var. Tebonnet, RICE); test: Pre-emerge test, crop safety; conditions: pre-emerge, 14 days after application, rating scale 0-100
Outline: (§3)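 Compounds in acetone were track-sprayed at 15-1000 g ai/ha (187 l/ha) on sandy loam pots: pre-emerge one day after seeding, post-emerge at 2-3 leaf stage with 0.25% v/v non-ionic surfactant. Phytotoxicity was rated 14 days later on a 0 (no damage) to 100 (complete death) scale.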

[22] = system: field corn (Zea mays L., var. Dekalb 535, CORN); test: Pre-emerge test, crop safety; conditions: pre-emerge, 14 days after application, rating scale 0-100
Outline: as §3

COCC(C)=NNc1c(OC)c(Cl)cc(F)c1-n1c(=O)cc(C(F)(F)F)n(C)c1=O [15-13]
80: Post-emerge Herbicidal Activity AMARE (phytotoxicity rating) ([4]; 63 g ai/ha, rating scale 0-100 (0 no damage, 100 complete death))
35: phytotoxicity rating CORN ([22]; 46 g ai/ha)
99: phytotoxicity rating SORHA ([14]; 46 g ai/ha) | phytotoxicity rating ECHCG ([18]; 46 g ai/ha)
20: Post-emerge Herbicidal Activity ECHCG (phytotoxicity rating) ([7]; 63 g ai/ha) | Post-emerge Herbicidal Activity SETVI (phytotoxicity rating) ([8]; 63 g ai/ha)
10: Post-emerge Herbicidal Activity SORHA (phytotoxicity rating) ([2]; 63 g ai/ha) | Post-emerge Herbicidal Activity DIGSA (phytotoxicity rating) ([5]; 63 g ai/ha)
100: Post-emerge Herbicidal Activity IPOHE (phytotoxicity rating) ([1]; 63 g ai/ha) | Post-emerge Herbicidal Activity IPOHE (phytotoxicity rating) ([1]; 250 g ai/ha) | Post-emerge Herbicidal Activity CHEAL (phytotoxicity rating) ([3]; 250 g ai/ha) | Post-emerge Herbicidal Activity CASOB (phytotoxicity rating) ([6]; 250 g ai/ha) | Post-emerge Herbicidal Activity ABUTH (phytotoxicity rating) ([9]; 63 g ai/ha) | Post-emerge Herbicidal Activity ABUTH (phytotoxicity rating) ([9]; 250 g ai/ha) | phytotoxicity rating AMARE ([10]; 46 g ai/ha) | phytotoxicity rating AMARE ([10]; 185 g ai/ha) | phytotoxicity rating IPOHE ([13]; 46 g ai/ha) | phytotoxicity rating IPOHE ([13]; 185 g ai/ha) | phytotoxicity rating SORHA ([14]; 185 g ai/ha) | phytotoxicity rating CHEAL ([15]; 46 g ai/ha) | phytotoxicity rating CHEAL ([15]; 185 g ai/ha) | phytotoxicity rating DIGSA ([16]; 46 g ai/ha) | phytotoxicity rating DIGSA ([16]; 185 g ai/ha) | phytotoxicity rating CASOB ([17]; 46 g ai/ha) | phytotoxicity rating CASOB ([17]; 185 g ai/ha) | phytotoxicity rating ECHCG ([18]; 185 g ai/ha) | phytotoxicity rating SETVI ([19]; 46 g ai/ha) | phytotoxicity rating SETVI ([19]; 185 g ai/ha) | phytotoxicity rating ABUTH ([20]; 46 g ai/ha) | phytotoxicity rating ABUTH ([20]; 185 g ai/ha) | phytotoxicity rating RICE ([21]; 185 g ai/ha) | phytotoxicity rating CORN ([22]; 185 g ai/ha)
90: Post-emerge Herbicidal Activity RICE (crop damage rating) ([11]; 250 g ai/ha) | phytotoxicity rating RICE ([21]; 46 g ai/ha)
95: Post-emerge Herbicidal Activity CHEAL (phytotoxicity rating) ([3]; 63 g ai/ha) | Post-emerge Herbicidal Activity AMARE (phytotoxicity rating) ([4]; 250 g ai/ha, rating scale 0-100)
60: Post-emerge Herbicidal Activity CASOB (phytotoxicity rating) ([6]; 63 g ai/ha) | Post-emerge Herbicidal Activity SETVI (phytotoxicity rating) ([8]; 250 g ai/ha) | Post-emerge Herbicidal Activity RICE (crop damage rating) ([11]; 63 g ai/ha)
50: Post-emerge Herbicidal Activity CORN (crop damage rating) ([12]; 250 g ai/ha)
70: Post-emerge Herbicidal Activity SORHA (phytotoxicity rating) ([2]; 250 g ai/ha) | Post-emerge Herbicidal Activity DIGSA (phytotoxicity rating) ([5]; 250 g ai/ha)
85: Post-emerge Herbicidal Activity ECHCG (phytotoxicity rating) ([7]; 250 g ai/ha)
15: Post-emerge Herbicidal Activity CORN (crop damage rating) ([12]; 63 g ai/ha)
